The values below come from EP2766361B1, “8-CARBAMOYL-2-(2,3-DISUBSTITUTED PYRID-6-YL)-1,2,3,4-TETRAHYDROISOQUINOLINE DERIVATIVES AS APOPTOSIS-INDUCING AGENTS FOR THE TREATMENT OF CANCER AND IMMUNE AND AUTOIMMUNE DISEASES” (priority 2011, dated 2013).

A value given as a limit tells only on which side of the number the result lay.

This assay concerns mouse FL5.12 cells transfected with Bcl-xL. Put plainly: FL5.12 cellular assay (cell viability, CellTiter-Glo). The assay is classed as cell-based. Conditions: IL-3-depleted, 3% FBS assay media, 24 hours, read-out: FL5.12 Bcl-xL, -IL3, EC50. As to the method: Cell viability was assayed using the CellTiter-Glo assay (Promega Corp., Madison, WI) according to the manufacturer instructions. Individual determinations were the result of duplicate values. […] Table 2. In Vitro Data
Broadly, the EC50 is the concentration that produces a half-maximal response. As to `Cc1c(-c2ccc(N3CCc4cccc(C(=O)Nc5nc6ccccc6s5)c4C3)nc2C(=O)O)cnn1CC12CC3CC(C)(CC(C)(C3)C1)C2` [Example 32, 6-[8-(1,3-benzothiazol-2-ylcarbamoyl)-3,4-dihydroisoquinolin-2(1H)-yl]-3-(1-{[3,5-dimethyltricyclo[3.3.1.1^3,7]dec-1-yl]methyl}-5-methyl-1H-pyrazol-4-yl)pyridine-2-carboxylic acid], the EC50 is 1 nM. For the compound `O=C(Nc1nc2ccccc2s1)c1cccc2c1CN(c1ccc(-c3cnn(CC45CC6CC(C4)CC(N4CCS(=O)(=O)CC4)(C6)C5)c3)c(C(=O)O)n1)CC2` [Example 33, 6-[8-(1,3-benzothiazol-2-ylcarbamoyl)-3,4-dihydroisoquinolin-2(1H)-yl]-3-(1-{[3-(1,1-dioxidothiomorpholin-4-yl)tricyclo[3.3.1.1^3,7]dec-1-yl]methyl}-1H-pyrazol-4-yl)pyridine-2-carboxylic acid], the EC50 is over 1000 nM.

Turning to `Cc1c(-c2ccc(N3CCc4cccc(C(=O)Nc5nc6ccccc6s5)c4C3)nc2C(=O)O)cc(C#N)n1CCC12CC3CC(CC(C3)C1)C2` [Example 34, 6-[8-(1,3-benzothiazol-2-ylcarbamoyl)-3,4-dihydroisoquinolin-2(1H)-yl]-3-{5-cyano-2-methyl-1-[2-(tricyclo[3.3.1.1^3,7]dec-1-yl)ethyl]-1H-pyrrol-3-yl}pyridine-2-carboxylic acid], the EC50 amounted to 150 nM. Consider `Cc1c(-c2ccc(N3CCc4cccc(C(=O)Nc5nc6ccccc6s5)c4C3)nc2C(=O)NS(C)(=O)=O)cc(C#N)n1CC12CC3CC(CC(C3)C1)C2` [Example 35, N-(1,3-benzothiazol-2-yl)-2-{5-[5-cyano-2-methyl-1-(tricyclo[3.3.1.1^3,7]dec-1-ylmethyl)-1H-pyrrol-3-yl]-6-[(methylsulfonyl)carbamoyl]pyridin-2-yl}-1,2,3,4-tetrahydroisoquinoline-8-carboxamide], for which the EC50 was found to be 1 nM. With `Cc1c(-c2ccc(N3CCc4cccc(C(=O)Nc5nc6ccccc6s5)c4C3)nc2C(=O)NS(=O)(=O)C2CC2)cc(C#N)n1CC12CC3CC(CC(C3)C1)C2` [Example 36, N-(1,3-benzothiazol-2-yl)-2-{5-[5-cyano-2-methyl-1-(tricyclo[3.3.1.1^3,7]dec-1-ylmethyl)-1H-pyrrol-3-yl]-6-[(cyclopropylsulfonyl)carbamoyl]pyridin-2-yl}-1,2,3,4-tetrahydroisoquinoline-8-carboxamide], the EC50 is 0.8 nM. On to `COC12CC3CC(CC(Cn4ncc(-c5ccc(N6CCc7cccc(C(=O)Nc8nc9ccccc9s8)c7C6)nc5C(=O)NS(C)(=O)=O)c4C)(C3)C1)C2` [Example 37, N-(1,3-benzothiazol-2-yl)-2-{5-(1-{[3-methoxytricyclo[3.3.1.1^3,7]dec-1-yl]methyl}-5-methyl-1H-pyrazol-4-yl)-6-[(methylsulfonyl)carbamoyl]pyridin-2-yl}-1,2,3,4-tetrahydroisoquinoline-8-carboxamide], for which the EC50 was 3 nM. Regarding `COC12CC3(C)CC(C)(CC(Cn4ncc(-c5ccc(N6CCc7cccc(C(=O)Nc8nc9ccccc9s8)c7C6)nc5C(=O)O)c4C)(C3)C1)C2` [Example 38, 6-[8-(1,3-benzothiazol-2-ylcarbamoyl)-3,4-dihydroisoquinolin-2(1H)-yl]-3-(1-{[3-methoxy-5,7-dimethyltricyclo[3.3.1.1^3,7]dec-1-yl]methyl}-5-methyl-1H-pyrazol-4-yl)pyridine-2-carboxylic acid], the EC50 was found to be 0.1 nM. To `COC12CC3CC(CC(Cn4ncc(-c5ccc(N6CCc7cccc(C(=O)Nc8nc9ccccc9s8)c7C6)nc5C(=O)NS(=O)(=O)N5CCOCC5)c4C)(C3)C1)C2` [Example 39, N-(1,3-benzothiazol-2-yl)-2-{5-(1-{[3-methoxytricyclo[3.3.1.1^3,7]dec-1-yl]methyl}-5-methyl-1 H-pyrazol-4-yl)-6-[(morpholin-4-ylsulfonyl)carbamoyl]pyridin-2-yl}-1,2,3,4-tetrahydroisoquinoline-8-carboxamide] belongs 0.6 nM.

As for `COC12CC3CC(CC(Cn4ncc(-c5ccc(N6CCc7cccc(C(=O)Nc8nc9ccccc9s8)c7C6)nc5C(=O)NS(=O)(=O)C(F)(F)F)c4C)(C3)C1)C2` [Example 40, N-(1,3-benzothiazol-2-yl)-2-[5-(1-{[3-methoxytricyclo[3.3.1.1^3,7]dec-1-yl]methyl}-5-methyl-1H-pyrazol-4-yl)-6-{[(trifluoromethyl)sulfonyl]carbamoyl}pyridin-2-yl]-1,2,3,4-tetrahydroisoquinoline-8-carboxamide], the EC50 was 47 nM. On to `COC12CC3CC(CC(Cn4ncc(-c5ccc(N6CCc7cccc(C(=O)Nc8nc9ccccc9s8)c7C6)nc5C(=O)NS(=O)(=O)C5CC5)c4C)(C3)C1)C2` [Example 41], for which the EC50 worked out at 0.4 nM. Consider `[2H]C1([2H])c2c(cccc2C(=O)Nc2nc3ccccc3s2)CCN1c1ccc(-c2cnn(CC34CC5CC(CC(C5)C3)C4)c2C)c(C(=O)O)n1` [Example 44, 6-[8-(1,3-benzothiazol-2-ylcarbamoyl)-1,1-dideutero-3,4-dihydroisoquinolin-2(1H)-yl]-3-[5-methyl-1-(tricyclo[3.3.1.1^3,7]dec-1-ylmethyl)-1H-pyrazol-4-yl]pyridine-2-carboxylic acid], for which the 50% effective concentration (EC50) is 0.3 nM. As to `N#Cc1c(NC23CC4CC(CC(C4)C2)C3)cccc1-c1ccc(N2CCc3cccc(C(=O)Nc4nc5ccccc5s4)c3C2)nc1C(=O)O` [Example 47, 6-[8-(1,3-benzothiazol-2-ylcarbamoyl)-3,4-dihydroisoquinolin-2(1H)-yl]-3-{2-cyano-3-[tricyclo[3.3.1.1^3,7]dec-1-ylamino]phenyl}pyridine-2-carboxylic acid], the EC50 is 54 nM. For `N#Cc1c(SC23CC4CC(CC(C4)C2)C3)cccc1-c1ccc(N2CCc3cccc(C(=O)Nc4nc5ccccc5s4)c3C2)nc1C(=O)O` [Example 48, 6-[8-(1,3-benzothiazol-2-ylcarbamoyl)-3,4-dihydroisoquinolin-2(1H)-yl]-3-{2-cyano-3-[tricyclo[3.3.1.1^3,7]dec-1-ylsulfanyl]phenyl}pyridine-2-carboxylic acid], the EC50 was 8 nM.

With `Cc1c(NC(=O)C23CC4CC(CC(C4)C2)C3)cccc1-c1ccc(N2CCc3cccc(C(=O)Nc4nc5ccccc5s4)c3C2)nc1C(=O)O` [Example 50, 6-[8-(1,3-benzothiazol-2-ylcarbamoyl)-3,4-dihydroisoquinolin-2(1H)-yl]-3-(2-methyl-3-{[tricyclo[3.3.1.1^3,7]dec-1-ylcarbonyl]amino}phenyl)pyridine-2-carboxylic acid], the EC50 is over 1000 nM.

Turning to `Cc1c(-c2ccc(N3CCc4cccc(C(=O)Nc5nc6ccccc6s5)c4C3)nc2C(=O)O)cccc1S(=O)(=O)NC12CC3CC(CC(C3)C1)C2` [Example 51, 6-[8-(1,3-benzothiazol-2-ylcarbamoyl)-3,4-dihydroisoquinolin-2(1H)-yl]-3-{2-methyl-3-[tricyclo[3.3.1.1^3,7]dec-1-ylsulfamoyl]phenyl}pyridine-2-carboxylic acid], the EC50 came to 164 nM.

Turning to `Cc1c(-c2ccc(N3CCc4cccc(C(=O)Nc5nc6ccccc6s5)c4C3)nc2C(=O)O)cnn1CC12CC3CC(C1)CC(OCC1CCOCC1)(C3)C2` [Example 53, 6-[8-(1,3-benzothiazol-2-ylcarbamoyl)-3,4-dihydroisoquinolin-2(1H)-yl]-3-(5-methyl-1-{[3-(tetrahydro-2H-pyran-4-ylmethoxy)tricyclo[3.3.1.1^3,7]dec-1-yl]methyl}-1H-pyrazol-4-yl)pyridine-2-carboxylic acid], the EC50 stood at 4 nM. As for `Cc1c(C(=O)NC23CC4CC(CC(C4)C2)C3)cccc1-c1ccc(N2CCc3cccc(C(=O)Nc4nc5ccccc5s4)c3C2)nc1C(=O)O` [Example 54, 6-[8-(1,3-benzothiazol-2-ylcarbamoyl)-3,4-dihydroisoquinolin-2(1H)-yl]-3-{2-methyl-3-[tricyclo[3.3.1.1^3,7]dec-1-ylcarbamoyl]phenyl}pyridine-2-carboxylic acid], the EC50 is over 1000 nM. `Cc1c(-c2ccc(N3CCc4cccc(C(=O)Nc5nc6ccccc6s5)c4C3)nc2C(=O)O)cccc1N(C)CC12CC3CC(CC(C3)C1)C2` [Example 55, 6-[8-(1,3-benzothiazol-2-ylcarbamoyl)-3,4-dihydroisoquinolin-2(1H)-yl]-3-(2-methyl-3-{methyl[tricyclo[3.3.1.1^3,7]dec-1-ylmethyl]amino}phenyl)pyridine-2-carboxylic acid]: the EC50 came out at 47 nM. Consider `COCCC1(Cn2cc(-c3ccc(N4CCc5cccc(C(=O)Nc6nc7ccccc7s6)c5C4)nc3C(=O)O)cn2)C2CC3CC(C2)CC1C3` (stereo not shown) [Example 56, 6-[8-(1,3-benzothiazol-2-ylcarbamoyl)-3,4-dihydroisoquinolin-2(1H)-yl]-3-(1-{[2-(2-methoxyethyl)tricyclo[3.3.1.1^3,7]dec-2-yl]methyl}-1H-pyrazol-4-yl)pyridine-2-carboxylic acid], for which the EC50 turned out to be 17 nM. For `Cc1c(-c2ccc(N3CCc4cccc(C(=O)Nc5nc6ccccc6s5)c4C3)nc2C(=O)O)nnn1CC12CC3CC(CC(C3)C1)C2` [Example 57, 6-[8-(1,3-benzothiazol-2-ylcarbamoyl)-3,4-dihydroisoquinolin-2(1H)-yl]-3-[5-methyl-1-(tricyclo[3.3.1.1^3,7]dec-1-ylmethyl)-1H-1,2,3-triazol-4-yl]pyridine-2-carboxylic acid], the EC50 amounted to 12 nM. As to `COC12CC3CC(CC(Cn4c(C#N)cc(-c5ccc(N6CCc7cccc(C(=O)Nc8nc9ccccc9s8)c7C6)nc5C(=O)O)c4C)(C3)C1)C2` [Example 58, 6-[8-(1,3-benzothiazol-2-ylcarbamoyl)-3,4-dihydroisoquinolin-2(1H)-yl]-3-(5-cyano-1-{[3-methoxytricyclo[3.3.1.1^3,7]dec-1-yl]methyl}-2-methyl-1H-pyrrol-3-yl)pyridine-2-carboxylic acid], the EC50 came out at 0.3 nM. With `N#Cc1c(-c2ccc(N3CCc4cccc(C(=O)Nc5nc6ccccc6s5)c4C3)nc2C(=O)O)cccc1S(=O)(=O)C12CC3CC(CC(C3)C1)C2` [Example 60, 6-[8-(1,3-benzothiazol-2-ylcarbamoyl)-3,4-dihydroisoquinolin-2(1H)-yl]-3-[2-cyano-3-(tricyclo[3.3.1.1^3,7]dec-1-ylsulfonyl)phenyl]pyridine-2-carboxylic acid] the figure was 55 nM.
